Conditions: not given

Point of comparison: `CC(=O)Nc1cccc(C)c1`, log10 Koc (L/kg) 1.45. Against it:
- CCCSC(=O)N(CCC)CCC — higher, 2.33
- ClCC(Br)CBr (configuration not stated) — higher, 1.85
- CCOC(=O)C(O)(c1ccc(Cl)cc1)c1ccc(Cl)cc1 — higher, 3.3
- COC(=O)c1ccccc1S(=O)(=O)NC(=O)N(C)c1nc(C)nc(OC)n1 — higher, 1.72
- CCN(CC)c1nc(C)cc(OP(=S)(OC)OC)n1 — higher, 3
- CNC(=O)Oc1ccccc1C1OCCO1 — within 0.2 log units, 1.6
- Oc1ccc2ccccc2c1/N=N/c1ccccc1 — higher, 3.58
- Oc1c(Cl)c(Cl)c(Cl)c(Cl)c1Cl — higher, 4.3
- COc1nc(C)nc(NC(=O)NS(=O)(=O)c2ccccc2OCCCl)n1 — higher, 2.02

Point of comparison: `CC(O)C#N` (configuration not stated), log10 vapour pressure (mmHg) -0.925. Against it:
- CCCSC(=O)N(CCC)CCC — lower, -1.98
- CCCCOC(=O)C1=CC(=O)CC(C)(C)O1 — lower, -3.52
- CCC1CCC(C)C1 (configuration not stated) — higher, 0.799
- CCCCCS — higher, 1.14
- CCCCCCCC(=O)CCCCCCC — lower, -3.39
- ClCC(Br)CBr (configuration not stated) — higher, -0.237
- CCOC(=O)C(O)(c1ccc(Cl)cc1)c1ccc(Cl)cc1 — lower, -5.66
- CC(C)N(C(=O)COc1nnc(C(F)(F)F)s1)c1ccc(F)cc1 — lower, -6.17
- COC(=O)c1ccccc1S(=O)(=O)NC(=O)N(C)c1nc(C)nc(OC)n1 — lower, -9.41
- CC=CC(=O)O — higher, -0.542
- CC(C)O — higher, 1.66
- CCN(CC)c1nc(C)cc(OP(=S)(OC)OC)n1 — lower, -4.82
- CC(C)N(Cc1ccccc1)C(=O)C(C)(C)C — lower, -3.18
- Clc1ccc2ccccc2c1Cl — lower, -2.7
- CCCCCCCCCCCCCCCCCCl — lower, -4.34
- c1ccc(N2CCNCC2)cc1 — lower, -2.26
- Cn1ccc(=O)[nH]c1=O — lower, -3.29
- c1ccc2cnccc2c1 — lower, -1.16
- CNC(=O)Oc1ccccc1C1OCCO1 — lower, -6.52
- CC(C)(C)c1ccccc1O — within 0.2 log units, -1.05
- CCCCCCCCCCCCCCCCCCCCCl — lower, -5.62
- Fc1ccc(Oc2ccnc3cc(Cl)cc(Cl)c23)cc1 — lower, -6.82
- Cc1cc(C)c(C)c(C)c1 — higher, -0.303
- Oc1c(Cl)c(Cl)c(Cl)c(Cl)c1Cl — lower, -3.96
- CC/C=C\C/C=C\C/C=C\CCCCCCCC(=O)OC — lower, -5.29
- CCc1ccc(C)cc1C — higher, -0.0685

Point of comparison: `Cn1ccc2ccccc21`, boiling point 237 °C. Against it:
- Cc1cccc(Cl)c1Cl — lower, 208 °C
- Cc1cc(=O)n(-c2ccccc2)n1C — higher, 319 °C
- CC(Cc1ccccc1)c1ccccc1 (configuration not stated) — higher, 280 °C
- CCCCOC(=O)C1=CC(=O)CC(C)(C)O1 — higher, 263 °C
- CCOC(=O)C(C)(C)O — lower, 150 °C
- Cc1cn[nH]c1 — lower, 206 °C
- CCCCCS — lower, 127 °C
- Cc1cccc(C(C)C)c1O — lower, 226 °C
- CC(/C=C\c1ccccc1)c1ccccc1 (configuration not stated) — higher, 311 °C
- ICCI — lower, 200 °C
- Nc1ccccc1Oc1ccccc1 — higher, 308 °C
- CC(C)CCOC(=O)C(C)O (configuration not stated) — lower, 202 °C
- c1ccc(C2CCOCO2)cc1 (configuration not stated) — higher, 247 °C
- O=C(O)C(F)(F)C(F)(F)C(F)(F)C(F)(F)C(F)(F)C(F)F — lower, 192 °C
- O=C(c1ccccc1)c1ccc(-c2ccccc2)cc1 — higher, 420 °C
- CCCCCCCC(=O)CCCCCCC — higher, 291 °C
- CCC(C#N)c1ccccc1 (configuration not stated) — higher, 241 °C
- COc1cccc(OC)c1O — higher, 261 °C
- O=[N+]([O-])CCO — lower, 194 °C
- COS(C)(=O)=O — lower, 203 °C
- CCCCCCCCCCCCCC(=O)OCC — higher, 295 °C
- CCC(C)CCC=C(C)C (configuration not stated) — lower, 163 °C
- ClCC(Br)CBr (configuration not stated) — lower, 196 °C
- CC(C)CCCCCCC=O — lower, 197 °C
- Fc1ccc2ccccc2c1 — lower, 212 °C
- CCC(Cl)(Cl)[N+](=O)[O-] — lower, 145 °C
- CC=CC(=O)O — lower, 185 °C
- Cc1ccc(Oc2ccc(C)cc2)cc1 — higher, 285 °C
- CC(O)C#N (configuration not stated) — lower, 183 °C
- CC(C)NNC(C)C — lower, 125 °C
- CC(C)O — lower, 82.3 °C
- CCCCCCC(C)(C)C — lower, 155 °C
- COCC(=O)Cl — lower, 112 °C
- Clc1ccc2ccccc2c1Cl — higher, 296 °C
- CCOc1cccc(Cl)c1 — lower, 207 °C
- COc1ccc(C)c([N+](=O)[O-])c1 — higher, 266 °C
- OCc1cccnc1 — higher, 266 °C
- c1ccc(N2CCNCC2)cc1 — higher, 286 °C
- c1ccc2cnccc2c1 — higher, 243 °C
- COC(Cc1ccccc1)OC — lower, 220 °C
- CC(C)(C)CN — lower, 82 °C
- CC(C)(C)c1ccccc1O — lower, 223 °C
- CC(=O)Nc1cccc(C)c1 — higher, 303 °C
- CCCC(C)N (configuration not stated) — lower, 92 °C
- Cc1cc(C)c(C)c(C)c1 — lower, 198 °C
- CC(C)OC(=O)C(Cl)Cl — lower, 164 °C
- Oc1c(Cl)c(Cl)c(Cl)c(Cl)c1Cl — higher, 310 °C
- CC1=CC=C(C(C)C)CC1 — lower, 175 °C
- CCc1ccc(C)cc1C — lower, 188 °C

Point of comparison: `N#CSC#N`, melting point 63.5 °C. Against it:
- Cc1cccc(Cl)c1Cl — lower, 6 °C
- Cc1cc(=O)n(-c2ccccc2)n1C — higher, 114 °C
- CC(Cc1ccccc1)c1ccccc1 (configuration not stated) — lower, 52 °C
- CCOC(=O)C1N=C(c2ccccc2F)c2cc(Cl)ccc2NC1=O (configuration not stated) — higher, 194 °C
- C=CP(=O)(O)O — lower, 43 °C
- CCCCCS — lower, -75.7 °C
- Cc1cccc(C(C)C)c1O — lower, -14.5 °C
- CC(/C=C\c1ccccc1)c1ccccc1 (configuration not stated) — lower, 47.5 °C
- ICCI — higher, 83 °C
- Nc1ccccc1Oc1ccccc1 — lower, 45.8 °C
- CC(=O)CCCCC(C)=O — lower, 44 °C
- CN(CCCC(=O)c1cccnc1)N=O — higher, 64 °C
- O=C(O)C(F)(F)C(F)(F)C(F)(F)C(F)(F)C(F)(F)C(F)F — lower, 34 °C
- O=C(c1ccccc1)c1ccc(-c2ccccc2)cc1 — higher, 100 °C
- CCCCCCCC(=O)CCCCCCC — lower, 43 °C
- NC(N)=N/C(N)=N/c1ccccc1 — higher, 143 °C
- O=C(CC(c1ccccc1)c1ccccc1)c1ccccc1 — higher, 96 °C
- COc1cccc(OC)c1O — lower, 56.5 °C
- O=[N+]([O-])CCO — lower, -80 °C
- COS(C)(=O)=O — lower, 20 °C
- CCCCCCCCCCCCCC(=O)OCC — lower, 12.3 °C
- CC(C)(C(N)=O)n1nc2ccccc2n1 — higher, 174 °C
- C=C[C@H]1CNCC[C@H]1CCC(=O)c1ccnc2ccccc12 — lower, 59 °C
- O=C1C(Cl)=C(Cl)C(=O)N1c1ccc(F)cc1 — higher, 241 °C
- ON=C1CCCCC1=NO — higher, 192 °C
- ClCC(Br)CBr (configuration not stated) — lower, 6 °C
- CCOC(=O)C(O)(c1ccc(Cl)cc1)c1ccc(Cl)cc1 — lower, 37 °C
- CCC1NC(=O)c2cc(S(N)(=O)=O)c(Cl)cc2N1 (configuration not stated) — higher, 251 °C
- Fc1ccc2ccccc2c1 — lower, 61 °C
- CC(C)N(C(=O)COc1nnc(C(F)(F)F)s1)c1ccc(F)cc1 — higher, 76 °C
- Oc1c(F)cccc1F — lower, 39.5 °C
- COC(=O)c1ccccc1S(=O)(=O)NC(=O)N(C)c1nc(C)nc(OC)n1 — higher, 141 °C
- CC=CC(=O)O — higher, 72 °C
- Cc1ccc(Oc2ccc(C)cc2)cc1 — lower, 51 °C
- CC(O)C#N (configuration not stated) — lower, -40 °C
- O=C1OC(=O)c2c(Br)c(Br)c(Br)c(Br)c21 — higher, 275 °C
- CC(C)O — lower, -89.5 °C
- O=C(O)CNC(CO)(CO)CO — higher, 187 °C
- CCN(CC)c1nc(C)cc(OP(=S)(OC)OC)n1 — lower, 15 °C
- Clc1ccc2ccccc2c1Cl — lower, 36 °C
- COc1ccccc1CC(=O)O — higher, 124 °C
- CN1[C@@H]2CC[C@H]1C[C@@H](OC(=O)C(O)c1ccccc1)C2 (mixture of isomers) — higher, 99.5 °C
- COc1ccc(C)c([N+](=O)[O-])c1 — lower, 17 °C
- OCc1cccnc1 — lower, -6.5 °C
- CC(C)(C)[C@H](O)/C(=C\c1ccc(Cl)cc1)n1cncn1 — higher, 153 °C
- Cn1ccc(=O)[nH]c1=O — higher, 237 °C
- CNC(=C[N+](=O)[O-])NCCSCc1csc(CN(C)C)n1 — higher, 131 °C
- c1ccc2cnccc2c1 — lower, 26.5 °C
- COc1c(C[C@@H](O)C(C)C)c(=O)n(C)c2c(OC)cccc12 — higher, 86.5 °C
- CNC(=O)Oc1ccccc1C1OCCO1 — higher, 114 °C
- Nc1cc(N2CCCCC2)nc(N)[n+]1[O-] — higher, 248 °C
- C[C@H](Oc1ccc(Oc2nc3ccc(Cl)cc3o2)cc1)C(=O)O — higher, 158 °C
- C#C[C@]1(O)C=C[C@H]2[C@@H]3CCC4=CC(=O)CC[C@@H]4[C@H]3CC[C@@]21CC — higher, 198 °C
- Oc1ccc2ccccc2c1/N=N/c1ccccc1 — higher, 134 °C
- Clc1ccc(Cn2c(CN3CCCC3)nc3ccccc32)cc1 — higher, 167 °C
- CC(C)(C)c1ccccc1O — lower, -6.8 °C
- CC(=O)Nc1cccc(C)c1 — higher, 65.5 °C
- C=C1C[C@@H]1C[C@H](N)C(=O)O — higher, 282 °C
- Fc1ccc(Oc2ccnc3cc(Cl)cc(Cl)c23)cc1 — higher, 107 °C
- Cc1cc(C)c(C)c(C)c1 — lower, -23.7 °C
- COc1ccc([N+](=O)[O-])cc1N — higher, 118 °C
- Oc1c(Cl)c(Cl)c(Cl)c(Cl)c1Cl — higher, 174 °C
- CN(C)C(=O)Oc1cccc([N+](C)(C)C)c1.COS(=O)(=O)[O-] — higher, 143 °C
- CCCCCCCCC[C@H](O)CC — lower, 25 °C
- Nc1ccc(Cl)c([N+](=O)[O-])c1 — higher, 103 °C
- CCCCCCCCCCCCCCCCC(=O)OCC — lower, 28 °C
- CC(=O)OOC(=O)c1ccccc1 — lower, 37 °C
- COc1nc(C)nc(NC(=O)NS(=O)(=O)c2ccccc2OCCCl)n1 — higher, 186 °C
- CC(C)[C@@H](C)/C=C/[C@@H](C)[C@H]1CC[C@H]2C3=CC=C4C[C@@H](O)CC[C@]4(C)C3=CC[C@]12C — higher, 146 °C
- O=[N+]([O-])c1cccc(S(=O)(=O)NCCNS(=O)(=O)c2cccc([N+](=O)[O-])c2)c1 — higher, 190 °C
- CC(C)(C)C(=O)C=Cc1ccccc1 — lower, 43 °C
- CCc1ccc(C)cc1C — lower, -62.9 °C
- O=C(C[N+](=O)[O-])Nc1ccccc1 — higher, 94 °C

Point of comparison: `Clc1ccc2c(Cl)c(Cl)ccc2c1Cl`, log10 Koa 8.28. Against it:
- Clc1ccc2ccccc2c1Cl — lower, 6.89

Point of comparison: `CC(C)O`, log10 Henry constant (atm·m³/mol) -5.09. Against it:
- COc1cccc(OC)c1O — lower, -6.64
- COC(=O)c1ccccc1S(=O)(=O)NC(=O)N(C)c1nc(C)nc(OC)n1 — lower, -13
- Clc1cc(Cl)cc(-c2ccc(Cl)c(Cl)c2)c1 — higher, -4.05
- Oc1c(Cl)c(Cl)c(Cl)c(Cl)c1Cl — lower, -7.61

With `CC(Br)(CBr)COc1c(Br)cc(Br)cc1Br` (configuration not stated) the ready biodegradability was “not readily biodegradable”.
With `ClCC(Br)CBr` (configuration not stated) the ready biodegradability was “not readily biodegradable”.
In the case of `CCOC(=O)C(O)(c1ccc(Cl)cc1)c1ccc(Cl)cc1`, the ready biodegradability is reported as “not readily biodegradable”.
In the case of `CC(C)O`, the ready biodegradability is reported as “readily biodegradable”.
With `N[C@@H](CSSC[C@H](N)C(=O)O)C(=O)O` the ready biodegradability was “readily biodegradable”.
For `Oc1c(Cl)c(Cl)c(Cl)c(Cl)c1Cl`, the ready biodegradability was “not readily biodegradable”.

Point of comparison: `CCc1ccc(C)cc1C`, log10 biodegradation half-life (days) 0.602. Against it:
- Cc1cc(C)c(C)c(C)c1 — within 0.2 log units, 0.477

Same assay, conditions: fish

Point of comparison: `ClCC(Br)CBr` (configuration not stated), log10 BCF 1.06. Against it:
- CCOC(=O)C(O)(c1ccc(Cl)cc1)c1ccc(Cl)cc1 — higher, 2.68
- Oc1c(Cl)c(Cl)c(Cl)c(Cl)c1Cl — higher, 2.66

Point of comparison: `Oc1c(Cl)c(Cl)c(Cl)c(Cl)c1Cl`, log10 biotransformation half-life (days) -0.2. Against it:
- ClCC(Br)CBr (configuration not stated) — lower, -1.14
- CCOC(=O)C(O)(c1ccc(Cl)cc1)c1ccc(Cl)cc1 — within 0.2 log units, -0.08
